We go through 35 compounds from US7868037B2 (PTC Therapeutics, Inc., priority 2004, dated 2011).

Read-outs that look alike come from different tables or passages of the source.

The term IC50 denotes the midpoint of a concentration-inhibition curve. What is called melting point is the temperature of the solid-liquid transition.

The test system of one series is HCV replicon. Kind of series: microbe, parasite or virus in culture. It is filed as cell-based, hepatitis C virus.
The mark [1] stands for this setting: Hepatitis C virus, read-out: Replicon IC50 μM.

Consider `CCn1c(-c2ccc(O)c(N)c2)c(C#N)c2ccc(OC)cc21` [Compound 322, 2-(3-amino-4-hydroxyphenyl)-1-ethyl-6-methoxy-1H-indole-3-carbonitrile], for which the melting point lay within 223 to 230 °C. Also, in the series on HCV replicon (setting [1]), the IC50 is above 2 µM. On to `CCOC(=O)Nc1ccc2c(C#N)c(-c3ccc(OCC)cc3)n(CC)c2c1` [Compound 838, [3-cyano-2-(4-ethoxyphenyl)-1-ethyl-1H-indol-6-yl]-carbamic acid ethyl ester], for which the melting point fell in the range of 193 to 194 °C. Also, in the series on HCV replicon (setting [1]), the IC50 was 0.5 to 2 µM. Taken in the same sequence, the figures for `CCn1c(-c2ccc3[nH]c(=O)oc3c2)c(C#N)c2ccc(OC)cc21` [Compound 340, 1-ethyl-6-methoxy-2-(2-oxo-2,3-dihydro-benzooxazol-6-yl)-1H-indole-3-carbonitrile] were 243 to 248 °C and above 2 µM. Consider `CCOc1ccc2c(C#N)c(-c3ccc(N4CC(=O)NC4=O)cc3)n(CC)c2c1` [Compound 776, 2-[4-(2,4-dioxo-imidazolidin-1-yl)phenyl]-6-ethoxy-1-ethyl-1H-indole-3-carbonitrile], for which the melting point is 257 to 258 °C. Besides, the IC50 in the series with HCV replicon (setting [1]) is below 0.5 µM. Turning to `CCOC(=O)CNC(=O)Nc1ccc(-c2c(C#N)c3ccc(OCC)cc3n2CC)cc1` [Compound 773, ethyl {3-[4-(3-cyano-6-ethoxy-1-ethyl-1H-indol-2-yl)-phenyl]-ureido}-acetate], the melting point is 191 to 193 °C. Further, in the series on HCV replicon (setting [1]), the IC50 fell in the range of 0.5 to 2 µM. Taken in the same sequence, the figures for `CCOc1ccc2c(C#N)c(-c3ccc(NC(=O)NC(Cc4ccccc4)C(=O)OC)cc3)n(CC)c2c1` (centres unmarked) [Compound 777, methyl 2-{3-[4-(3-cyano-6-ethoxy-1-ethyl-1H-indol-2-yl)-phenyl]-ureido}-3-phenyl-propionate] were 124 to 127 °C and below 0.5 µM. On the same counts, the results for `CCn1c(-c2cccc(O)c2)c(C#N)c2ccc(OC)cc21` [Compound 288, 1-ethyl-2-(3-hydroxyphenyl)-6-methoxy-1H-indole-3-carbonitrile] are 194 to 199 °C and above 2 µM. Taken in the same sequence, the figures for `CCn1c(-c2ccc(OCC(=O)N3CC[C@H](O)C3)cc2)c(C#N)c2ccc(OC)cc21` [Compound 285, 1-ethyl-2-{4-[2-(3-hydroxypyrrolidin-1-yl)-2-oxo-ethoxy]phenyl}-6-methoxy-1H-indole-3-carbonitrile] were 185 to 190 °C and above 2 µM. For the compound `CCn1c(-c2ccc(OCCNC(C)=O)cc2)c(C#N)c2ccc(OC)cc21` [Compound 274, N-{2-[4-(3-cyano-1-ethyl-6-methoxy-1H-indol-2-yl)-phenoxy]-ethyl}acetamide], the melting point was in the range of 166 to 172 °C. Further, the IC50 with HCV replicon (setting [1]) was above 2 µM. Take `CCCn1c(-c2ccc(N3CCCS3(=O)=O)cc2)c(-c2cnco2)c2ccc(OC)cc21` [Compound 805]: the melting point was 217 to 222 °C. For the same compound, the IC50 in the series with HCV replicon (setting [1]) is above 2 µM.

Take `CCn1cc(-c2cc(-c3ccc(OC)cc3)on2)c2ccc(OC)cc21` [Compound 116, 1-ethyl-6-methoxy-3-[5-(4-methoxyphenyl)-isoxazol-3-yl]-1H-indole]: the melting point is 116 to 118 °C. Also, the IC50 with HCV replicon (setting [1]) was above 2 µM. `CCn1c(-c2ccc(S(C)(=O)=O)cc2)c(C#N)c2ccc(OC)cc21` [Compound 265, 1-ethyl-2-(4-methanesulfonylphenyl)-6-methoxy-1H-indole-3-carbonitrile] returned a melting point of 204 to 206 °C. Besides, in the series on HCV replicon (setting [1]), the IC50 is above 2 µM. Taken in the same sequence, the figures for `CCn1c(-c2ccc(OCCOC)cc2)c(C#N)c2ccc(OC)cc21` [Compound 248, 1-ethyl-6-methoxy-2-[4-(2-methoxyethoxy)-phenyl]-1H-indole-3-carbonitrile] were 117 to 121 °C and 0.5 to 2 µM. As for `CCn1c(-c2ccc(NS(C)(=O)=O)cc2)c(C#N)c2ccc(OCCN3CCOCC3)cc21` [Compound 478, N-{4-[3-cyano-1-ethyl-6-(2-morpholin-4-yl-ethoxy)-1H-indol-2-yl]-phenyl}methanesulfonamide], the melting point lay within 172 to 175 °C. Also, the IC50 with HCV replicon (Hepatitis C virus, read-out: Replicon IC50) was below 0.5 µM. In the case of `CCn1c(-c2ccc3c(c2)N(C)C(=O)CO3)c(C#N)c2ccc(OC)cc21` [Compound 339, 1-ethyl-6-methoxy-2-(4-methyl-3-oxo-3,4,-dihydro-2H-benzo[1,4]oxazin-6-yl)-1H-indole-3-carbonitrile], the melting point was 215 to 219 °C. In the series on HCV replicon (setting [1]), the IC50 lay in the range of 0.5 to 2 µM.

The compound `CCn1cc(C#N)c2ccc(OC)cc21` [Compound 5, 1-ethyl-6-methoxy-1H-indole-3-carbonitrile] yielded a melting point of 64 to 66 °C. For the same compound, in the series with HCV replicon (setting [1]), the IC50 is above 2 µM. `CCn1c(C#Cc2ccc(NC(=O)NCCCl)cc2)c(C#N)c2ccc(OC)cc21` [Compound 156, 1-(2-chloroethyl)-3-[4-(3-cyano-1-ethyl-6-methoxy-1H-indol-2-ylethynyl)-phenyl]urea] returned a melting point of 205 to 209 °C. In the series on HCV replicon (setting [1]), the IC50 lay within 0.5 to 2 µM. `CCn1c(-c2ccc(NC(C)=O)cc2)c(C#N)c2ccc(OC)cc21` [Compound 128, N-[4-(3-Cyano-1-ethyl-6-methoxy-1H-indol-2-yl)-phenyl]-acetamide]: the melting point was in the range of 218 to 220 °C. Also, in the series on HCV replicon (setting [1]), the IC50 is above 2 µM. Taken in the same sequence, the figures for `CCn1cc(-c2cnco2)c2ccc(C(=O)OC)cc21` [Compound 72, methyl 1-ethyl-3-oxazol-5-yl-1H-indole-6-carboxylate] were 144 to 149 °C and above 2 µM. On to `CCn1c(-c2ccc(OCCBr)cc2)c(C#N)c2ccc(OC)cc21` [Compound 253, 2-[4-(2-bromoethoxy)-phenyl]-1-ethyl-6-methoxy-1H-indole-3-carbonitrile], for which the melting point fell in the range of 121 to 125 °C. The IC50 with HCV replicon (setting [1]) lay within 0.5 to 2 µM. `CCn1c(-c2ccc(OCCNC=O)cc2)c(C#N)c2ccc(OC)cc21` [Compound 280, N-{2-[4-(3-cyano-1-ethyl-6-methoxy-1H-indol-2-yl)-phenoxy]ethyl}formamide]: the melting point was 89 to 95 °C. Also, the IC50 in the series with HCV replicon (setting [1]) was above 2 µM. On the same counts, the results for `CCn1c(-c2ccc(N)cc2)c(C#N)c2ccc(OC)cc21` [Compound 55, 2-(4-aminophenyl)-1-ethyl-6-methoxy-1H-indole-3-carbonitrile] are 183 to 185 °C and above 2 µM.

Take `CCn1c(-c2ccc(N(CCO)S(C)(=O)=O)cc2)c(C#N)c2ccc(OC)cc21` [Compound 828, N-[4-(3-cyano-1-ethyl-6-methoxy-1H-indol-2-yl)-phenyl]-N-(2-hydroxyethyl)-methanesulfonamide]: the melting point was in the range of 198 to 200 °C. Also, the IC50 in the series with HCV replicon (setting [1]) was in the range of 0.5 to 2 µM. Turning to `CCn1c(C#Cc2ccc(NC(=O)C3CC3)cc2)c(C#N)c2ccc(O)cc21` [Compound 194, cyclopropanecarboxylic acid [4-(3-cyano-1-ethyl-6-hydroxy-1H-indol-2-ylethynyl)-phenyl]amide], the melting point was in the range of 278 to 284 °C. Besides, the IC50 in the series on HCV replicon (setting [1]) lay within 0.5 to 2 µM. Taken in the same sequence, the figures for `CCn1c(-c2ccc(N3CCN(C)S3(=O)=O)cc2)c(C#N)c2ccc(OC)cc21` [Compound 726, 1-ethyl-6-methoxy-2-[4-(5-methyl-1,1-dioxo-1λ^6-[1,2,5]thiadiazolidin-2-yl)-phenyl]-1H-indole-3-carbonitrile] were 221 to 222 °C and 0.5 to 2 µM. `CCNC(=O)Nc1ccc2c(C#N)c(-c3ccc(OCC)cc3)n(CC)c2c1` [Compound 839, 1-[3-cyano-2-(4-ethoxyphenyl)-1-ethyl-1H-indol-6-yl]-3-ethyl-urea] yielded a melting point of 249 to 250 °C. For the same compound, the IC50 in the series on HCV replicon (setting [1]) was above 2 µM. On the same counts, the results for `CCn1cc(C#N)c2ccc(NC(=O)OC(C)(C)C)cc21` [Compound 16, t-butyl(3-cyano-1-ethyl-1H-indol-6-yl)-carbamate] are 175 to 177 °C and above 2 µM. Taken in the same sequence, the figures for `CCn1c(N2CCN(C(=O)OC(C)(C)C)CC2)c(C#N)c2ccc(C(F)(F)F)cc21` [Compound 785, 4-(3-cyano-1-ethyl-6-trifluoromethyl-1H-indol-2-yl)-piperazine-1-carboxylic acid tert-butyl ester] were 151 to 153 °C and 0.5 to 2 µM. `CCn1cc(-c2ccccc2)c2cc([N+](=O)[O-])ccc21` [Compound 41, N-ethyl-3-phenyl-5-nitroindole] came in with a melting point of 155 to 175 °C. The IC50 with HCV replicon (setting [1]) was above 2 µM. With `COc1ccc2c(C#N)c(-c3ccc(N4CCCS4(=O)=O)cc3)n(CC3CC3)c2c1` [Compound 716, 2-[4-(1,1-dioxidoisothiazolidin-2-yl)phenyl]-1-cyclopropylmethyl-6-methoxy-1H-indole-3-carbonitrile], the melting point was in the range of 204 to 205 °C. In the series on HCV replicon (setting [1]), the half-inhibitory concentration (IC50) is below 0.5 µM. As for `CCn1c(-c2ccc(NC(=O)NCCCl)cc2)c(C#N)c2ccc(OC)cc21` [Compound 442, 1-(2-chloroethyl)-3-[4-(3-cyano-1-ethyl-6-methoxy-1H-indol-2-yl)-phenyl]-urea], in the series on HCV replicon (setting [1]), the concentration for half-maximal inhibition (IC50) was above 2 µM. On to `CCn1c(C#Cc2ccc(NP(C)(C)=O)cc2)c(C#N)c2ccc(OC)cc21` [Compound 227, N-[4-(3-cyano-1-ethyl-6-methoxy-1H-indol-2-ylethynyl)-phenyl]-dimethylphosphinic amide], for which the IC50 in the series with HCV replicon (read-out: Replicon IC50) fell in the range of 0.5 to 2 µM. For the compound `CCn1c(-c2ccc(NS(=O)(=O)CCN3CCOCC3)cc2)c(C#N)c2ccc(OC)cc21` [Compound 653, 2-morpholin-4-yl-ethanesulfonic acid [4-(3-cyano-1-ethyl-6-methoxy-1H-indol-2-yl)-phenyl]amide], the half-maximal inhibitory concentration (IC50) in the series with HCV replicon (setting [1]) was above 2 µM. For `CCn1c(-c2ccc(NC(=O)C3CC3)cc2)c(C#N)c2cc(OC)ccc21` [Compound 244], the IC50 in the series with HCV replicon (read-out: Replicon IC50) lay in the range of 0.5 to 2 µM. For `COc1ccc(-n2cc(C#N)c3cc4c(cc32)OCO4)cc1` [Compound 44, 5-(4-methoxyphenyl)-5H-[1,3]dioxolo[4,5-f]indole-7-carbonitrile], the IC50 in the series with HCV replicon (setting [1]) is above 2 µM.
